Results taken from PubChem BioAssay AID2060615 (Molecular Pharmacology Branch, DTP, NCI, 2025).

System: 496974-208-R-J2-PDC complex spheroids, growth % test/control
Test: Anticancer human tumor 496974-208-R-J2-PDC patient-derived pancreatic carcinoma cell line growth inhibition [CLK]
Details: for IC50: curve of first compound; for viability, T/C: stronger effect = lower value
Description: A high-throughput screen of multi-cell type tumor spheroids was designed to identify active combinations of […] and targeted small molecules. Complex spheroids include a stromal component modeled by human endothelial cells (HUVEC) and fibroblasts modeled by human mesenchymal stem cells (MSCs). The concentration ranges selected for each drug and investigational agent were based upon clinically achievable concentrations if the clinical Cmax of the agent was known.
Compounds. The drugs and investigational agents: cirtuvivint (SM08502; NSC835563), CC-671 (NSC850746), vemurafenib (NSC761431), tapotoclax (NSC804041), sotorasib (NSC818433), adagrasib (NSC831453), MRTX-1133 (NSC836407), BAY2416964 (NSC825713), copanlisib (NSC816437), inavolisib (NSC800729), abemaciclib (NSC768073), osimertinib (NSC779217), entinostat (NSC756642), eltanexor (KPT-8602, NSC794443), venetoclax (NSC766270), ceralasertib (NSC777638), bortezomib (NSC756655), olaparib (NSC753686), talazoparib (NSC767125), alisertib (NSC759677), peposertib (NSC802822), gemcitabine (NSC613327), 5-fluorouracil (NSC19893), SN-38 (NSC673596), oxaliplatin (NSC266046), paclitaxel (NSC125973), and doxorubicin (NSC123127), were obtained from the National Cancer Institute (NCI) Developmental Therapeutics Program Chemical Repository. The FDA-approved anticancer drug set is available from the Developmental Therapeutics Program at https://dtp.cancer.gov/organization/dscb/obtaining/available plates.htm. […] The stock solutions were prepared in dimethyl sulfoxide (DMSO, Sigma-Aldrich, St. Louis, MO, cat. D2650), except for the platinum complexes which were prepared in saline (Quality Biological, Gaithersburg, MD, cat. 114-055-101), at 800-fold the tested concentration and stored at -70 degrees C prior to their use. All drugs and investigational agents were tested over a range starting from a high concentration at or near the clinical Cmax and decreasing in half-log increments. If the clinical Cmax for an agent had not been determined, the highest concentration tested was 10 microM.
Cell Culture. All cells were maintained in an incubator at 37 degrees C and 5% CO2 with 95% humidity. The PDC lines were cultured according to standard operating procedures established by the NCI PDMR. Briefly, all PDCs were thawed and cultured in Matrigel-coated flasks prepared with a working solution of 1X Ham's F-12 nutrient mix, without supplementation (Invitrogen, Waltham, MA, cat. 11765054), 100 U/mL penicillin-streptomycin (Invitrogen, cat. 15140122), and 2.5% Matrigel (Corning Inc., Corning, NY, cat. 354248) for the first three passages. The 947758-054-R-J2-PDC line was cultured in 6B/Colon 1A media, which includes advanced DMEM/F-12 (Thermo Fisher Scientific, cat. 12634028), 10 mM HEPES (Thermo Fisher Scientific, cat. 15630080), 1X GlutaMAX supplement (Thermo Fisher Scientific, cat. 35050061), 0.1 mg/mL primocin (InvivoGen, cat. ant-pm-2), 10% defined fetal bovine serum, heat inactivated (HyClone Laboratories Inc., cat. SH30070.03HI), 1.25 mM N-Acetyl-L-cysteine (Sigma-Aldrich, cat. A9165), 10 mM nicotinamide (Sigma-Aldrich, cat. N0636), 1X B-27 supplement (Thermo Fisher Scientific, cat. 17504044), 1X N-2 supplement (Thermo Fisher Scientific, cat. 17502048), and 10 microM Y-27632 dihydrochloride (Tocris Bioscience, cat. 1254). The 876862-298-R-J1-PDC was cultured in 6E media, which includes all 6B/Colon 1A media components plus 50% L-WRN conditioned media (ATCC, cat. CRL-3276), 50 ng/mL recombinant human EGF recombinant protein (hEGF; Thermo Fisher Scientific, cat. PHG0311), 10 ng/mL recombinant human fibroblast growth factor 10 (hGFG-10; PeproTech, cat. 100-26), 1 ng/mL recombinant human fibroblast growth factor 2 (hFGF-2; PeproTech, cat. 100-18B), and 1 µM prostaglandin E2 (PGE2; Tocris, cat. 2296). The 227483-062-R1-J1-PDC line was cultured in Panc media, containing all 6E components except hFGF-2, with the addition of 500 nM SB-431542 (Selleckchem, cat. S1067) and 10 nM gastrin (Tocris, cat. 3006). […]
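Note: spheroids exposed to the drugs for 7 days before readout.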
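Throughout, for viability, T/C: 100% = DMSO vehicle control wells.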

With `CCc1c2c(nc3ccc(O)cc13)-c1cc3c(c(=O)n1C2)COC(=O)[C@]3(O)CC` + CNC(=O)c1ccc(Nc2nc(OC3CCCC3)c3c(-c4ccc5nc(C)oc5c4)c[nH]c3n2)c(OC)c1 the IC50 (second compound 0.0316 µM) was 15.2 nM, the IC50 (second compound 0.1 µM) was 12.7 nM and the IC50 (second compound 0.316 µM) was 12.6 nM. For the same compound, the IC50 (second compound 1 µM) was 11.2 nM, the IC50 (second compound 3.16 µM) was 4.84 nM and the IC50 (second compound 10 µM) was under 3.16 nM. It also gave a viability, T/C (second compound 0.0316 µM, first compound 0.00316 µM) of 70.7%, a viability, T/C (second compound 0.0316 µM, first compound 0.01 µM) of 56.9% and a viability, T/C (second compound 0.0316 µM, first compound 0.0316 µM) of 38.6%. The viability, T/C (second compound 0.0316 µM, first compound 0.1 µM) was 19%, the viability, T/C (second compound 0.0316 µM, first compound 0.316 µM) was 12.1% and the viability, T/C (second compound 0.0316 µM, first compound 1 µM) was 3.81%. For the same compound, the viability, T/C (second compound 0.1 µM, first compound 0.00316 µM) was 67.8%, the viability, T/C (second compound 0.1 µM, first compound 0.01 µM) was 54% and the viability, T/C (second compound 0.1 µM, first compound 0.0316 µM) was 36%. For the same compound, the viability, T/C (second compound 0.1 µM, first compound 0.1 µM) was 21.2%, the viability, T/C (second compound 0.1 µM, first compound 0.316 µM) was 9.65% and the viability, T/C (second compound 0.1 µM, first compound 1 µM) was 2.79%. The viability, T/C (second compound 0.316 µM, first compound 0.00316 µM) was 69.8%, the viability, T/C (second compound 0.316 µM, first compound 0.01 µM) was 53.5% and the viability, T/C (second compound 0.316 µM, first compound 0.0316 µM) was 35%. It also gave a viability, T/C (second compound 0.316 µM, first compound 0.1 µM) of 19.2%, a viability, T/C (second compound 0.316 µM, first compound 0.316 µM) of 7.42% and a viability, T/C (second compound 0.316 µM, first compound 1 µM) of 3.21%. The viability, T/C (second compound 1 µM, first compound 0.00316 µM) was 60.5%, the viability, T/C (second compound 1 µM, first compound 0.01 µM) was 52.6% and the viability, T/C (second compound 1 µM, first compound 0.0316 µM) was 31.2%. The viability, T/C (second compound 1 µM, first compound 0.1 µM) was 13.5%, the viability, T/C (second compound 1 µM, first compound 0.316 µM) was 5.29% and the viability, T/C (second compound 1 µM, first compound 1 µM) was 2.81%. It also gave a viability, T/C (second compound 3.16 µM, first compound 0.00316 µM) of 54.4%, a viability, T/C (second compound 3.16 µM, first compound 0.01 µM) of 42.6% and a viability, T/C (second compound 3.16 µM, first compound 0.0316 µM) of 25.6%. For the same compound, the viability, T/C (second compound 3.16 µM, first compound 0.1 µM) was 12.9%, the viability, T/C (second compound 3.16 µM, first compound 0.316 µM) was 4.63% and the viability, T/C (second compound 3.16 µM, first compound 1 µM) was 2.2%. The viability, T/C (second compound 10 µM, first compound 0.00316 µM) was 50%, the viability, T/C (second compound 10 µM, first compound 0.01 µM) was 38.9% and the viability, T/C (second compound 10 µM, first compound 0.0316 µM) was 24.4%. The viability, T/C (second compound 10 µM, first compound 0.1 µM) was 11.9%, the viability, T/C (second compound 10 µM, first compound 0.316 µM) was 3.68% and the viability, T/C (second compound 10 µM, first compound 1 µM) was 6.41%.

With `NC(=O)C(=Cn1cnc(-c2cc(C(F)(F)F)cc(C(F)(F)F)c2)n1)c1cncnc1` + CNC(=O)c1ccc(Nc2nc(OC3CCCC3)c3c(-c4ccc5nc(C)oc5c4)c[nH]c3n2)c(OC)c1 the IC50 (second compound 0.0316 µM) was 158 nM, the IC50 (second compound 0.1 µM) was 81.6 nM and the IC50 (second compound 0.316 µM) was under 9.49 nM. For the same compound, the IC50 (second compound 1 µM) was under 9.49 nM, the IC50 (second compound 3.16 µM) was under 9.49 nM and the IC50 (second compound 10 µM) was under 9.49 nM. It also gave a viability, T/C (second compound 0.0316 µM, first compound 0.00949 µM) of 83.3%, a viability, T/C (second compound 0.0316 µM, first compound 0.03 µM) of 77.3% and a viability, T/C (second compound 0.0316 µM, first compound 0.0949 µM) of 65.1%. It also gave a viability, T/C (second compound 0.0316 µM, first compound 0.3 µM) of 31.4%, a viability, T/C (second compound 0.0316 µM, first compound 0.949 µM) of 20.5% and a viability, T/C (second compound 0.0316 µM, first compound 3 µM) of 14.1%. The viability, T/C (second compound 0.1 µM, first compound 0.00949 µM) was 68.5%, the viability, T/C (second compound 0.1 µM, first compound 0.03 µM) was 56.3% and the viability, T/C (second compound 0.1 µM, first compound 0.0949 µM) was 52%. It also gave a viability, T/C (second compound 0.1 µM, first compound 0.3 µM) of 27.9%, a viability, T/C (second compound 0.1 µM, first compound 0.949 µM) of 20.9% and a viability, T/C (second compound 0.1 µM, first compound 3 µM) of 16.8%. The viability, T/C (second compound 0.316 µM, first compound 0.00949 µM) was 47.2%, the viability, T/C (second compound 0.316 µM, first compound 0.03 µM) was 48.6% and the viability, T/C (second compound 0.316 µM, first compound 0.0949 µM) was 43.9%. The viability, T/C (second compound 0.316 µM, first compound 0.3 µM) was 21.4%, the viability, T/C (second compound 0.316 µM, first compound 0.949 µM) was 18.8% and the viability, T/C (second compound 0.316 µM, first compound 3 µM) was 12.4%. For the same compound, the viability, T/C (second compound 1 µM, first compound 0.00949 µM) was 46.6%, the viability, T/C (second compound 1 µM, first compound 0.03 µM) was 40.6% and the viability, T/C (second compound 1 µM, first compound 0.0949 µM) was 29.8%. For the same compound, the viability, T/C (second compound 1 µM, first compound 0.3 µM) was 16.1%, the viability, T/C (second compound 1 µM, first compound 0.949 µM) was 14.3% and the viability, T/C (second compound 1 µM, first compound 3 µM) was 9.67%. For the same compound, the viability, T/C (second compound 3.16 µM, first compound 0.00949 µM) was 44.9%, the viability, T/C (second compound 3.16 µM, first compound 0.03 µM) was 28.7% and the viability, T/C (second compound 3.16 µM, first compound 0.0949 µM) was 20.2%. The viability, T/C (second compound 3.16 µM, first compound 0.3 µM) was 12.1%, the viability, T/C (second compound 3.16 µM, first compound 0.949 µM) was 10.8% and the viability, T/C (second compound 3.16 µM, first compound 3 µM) was 5.23%. It also gave a viability, T/C (second compound 10 µM, first compound 0.00949 µM) of 39.4%, a viability, T/C (second compound 10 µM, first compound 0.03 µM) of 28.8% and a viability, T/C (second compound 10 µM, first compound 0.0949 µM) of 19.1%. The viability, T/C (second compound 10 µM, first compound 0.3 µM) was 9.35%, the viability, T/C (second compound 10 µM, first compound 0.949 µM) was 8.25% and the viability, T/C (second compound 10 µM, first compound 3 µM) was 3.76%.
